For four molecules, mutagenic call results are on record in PubChem BioAssay AID1259407 (Chemical Carcinogenesis Research Information System (CCRIS), 2018).

Each structure is given as a SMILES string. Active and inactive are the calls of the source. No rule for the calls is given here.

This data set relates to CCRIS mutagenicity, Ames/micronucleus/aberration tests. Put plainly: CCRIS mutagenicity studies.
The mark [1] stands for this setting: Test System: AMES SALMONELLA TYPHIMURIUM, Strain/Indicator: TA100, Metabolic Activation: HAMSTER, LIVER, S-9, AROCLOR 1254 (10%), Method: PREINCUBATION
The mark [2] stands for this setting: Test System: AMES SALMONELLA TYPHIMURIUM, Strain/Indicator: TA100, Metabolic Activation: RAT, LIVER, S-9, AROCLOR 1254 (10%), Method: PREINCUBATION
Setting [3] is: Test System: AMES SALMONELLA TYPHIMURIUM, Strain/Indicator: TA1535, Metabolic Activation: HAMSTER, LIVER, S-9, AROCLOR 1254 (10%), Method: PREINCUBATION
[4] abbreviates: Test System: AMES SALMONELLA TYPHIMURIUM, Strain/Indicator: TA1535, Metabolic Activation: RAT, LIVER, S-9, AROCLOR 1254 (10%), Method: PREINCUBATION

`ClCC1CO1` (stereo not drawn): the mutagenic call reads like this: (End Point: IN VITRO CHROMOSOMAL ABERRATIONS, Test System: CHL CELLS, Metabolic Activation: NONE) “active; positive (structural changes)”; (End Point: IN VITRO CHROMOSOMAL ABERRATIONS, Test System: CHL CELLS, Metabolic Activation: RAT, LIVER, S-9, SODIUM PHENOBARBITAL AND 5,6-BENZOFLAVONE) “active; positive (structural changes)”; (Test System: AMES SALMONELLA TYPHIMURIUM, Strain/Indicator: G46, Metabolic Activation: NONE, Method: STANDARD PLATE) “active; positive”; (Test System: AMES SALMONELLA TYPHIMURIUM, Strain/Indicator: TA97, Metabolic Activation: NONE, Method: STANDARD PLATE) “active; positive”; (Test System: AMES SALMONELLA TYPHIMURIUM, Strain/Indicator: TA97, Metabolic Activation: RAT, LIVER, S-9, AROCLOR 1254, Method: STANDARD PLATE) “inactive; negative”; (Test System: AMES SALMONELLA TYPHIMURIUM, Strain/Indicator: TA98, Metabolic Activation: NONE, Method: STANDARD PLATE) “inactive; negative”. Besides, the mutagenic call was “active; positive” (Test System: AMES SALMONELLA TYPHIMURIUM, Strain/Indicator: TA98, Metabolic Activation: RAT LIVER S-9, PHENOBARBITAL AND BETA-NAPHTHOFLAVONE, Method: PREINCUBATION); “inactive; negative” (Test System: AMES SALMONELLA TYPHIMURIUM, Strain/Indicator: TA98, Metabolic Activation: RAT, LIVER, S-9, AROCLOR 1254, Method: STANDARD PLATE); “inactive; negative” (Test System: AMES SALMONELLA TYPHIMURIUM, Strain/Indicator: TA98, Metabolic Activation: S-9, Method: PREINCUBATION); “active; positive” under setting [1]; “active; positive” (Test System: AMES SALMONELLA TYPHIMURIUM, Strain/Indicator: TA100, Metabolic Activation: RAT LIVER S-9, PHENOBARBITAL AND BETA-NAPHTHOFLAVONE, Method: PREINCUBATION); “active; positive” under setting [2]. Further, the mutagenic call was “active; positive” (Test System: AMES SALMONELLA TYPHIMURIUM, Strain/Indicator: TA100, Metabolic Activation: S-9, Method: PREINCUBATION); “active; positive” (Test System: AMES SALMONELLA TYPHIMURIUM, Strain/Indicator: TA104, Metabolic Activation: NONE, Method: STANDARD PLATE); “active; positive” under setting [3]; “active; positive” (Test System: AMES SALMONELLA TYPHIMURIUM, Strain/Indicator: TA1535, Metabolic Activation: NONE, Method: DESICCATOR); “active; positive” (Test System: AMES SALMONELLA TYPHIMURIUM, Strain/Indicator: TA1535, Metabolic Activation: NONE, Method: STANDARD PLATE); “active; positive” (Test System: AMES SALMONELLA TYPHIMURIUM, Strain/Indicator: TA1535, Metabolic Activation: RAT LIVER S-9, PHENOBARBITAL AND BETA-NAPHTHOFLAVONE, Method: PREINCUBATION). Further, the mutagenic call under setting [4] was “active; positive”; the mutagenic call (Test System: AMES SALMONELLA TYPHIMURIUM, Strain/Indicator: TA1535, Metabolic Activation: RAT, LIVER, S-9, AROCLOR 1254, Method: STANDARD PLATE) is “active; positive”; the mutagenic call (Test System: AMES SALMONELLA TYPHIMURIUM, Strain/Indicator: TA1535, Metabolic Activation: S-9, Method: PREINCUBATION) is “active; positive”; the mutagenic call (Test System: AMES SALMONELLA TYPHIMURIUM, Strain/Indicator: TA1537, Metabolic Activation: NONE, Method: STANDARD PLATE) is “inactive; negative”; the mutagenic call (Test System: AMES SALMONELLA TYPHIMURIUM, Strain/Indicator: TA1537, Metabolic Activation: RAT LIVER S-9, PHENOBARBITAL AND BETA-NAPHTHOFLAVONE, Method: PREINCUBATION) is “inactive; negative”; the mutagenic call (Test System: AMES SALMONELLA TYPHIMURIUM, Strain/Indicator: TA1537, Metabolic Activation: RAT, LIVER, S-9, AROCLOR 1254, Method: STANDARD PLATE) is “inactive; negative”. The mutagenic call by setting is: (Test System: AMES SALMONELLA TYPHIMURIUM, Strain/Indicator: TA1537, Metabolic Activation: S-9, Method: PREINCUBATION) “inactive; negative”; (Test System: AMES SALMONELLA TYPHIMURIUM, Strain/Indicator: TA4001, Metabolic Activation: NONE, Method: STANDARD PLATE) “active; positive”; (Test System: AMES SALMONELLA TYPHIMURIUM, Strain/Indicator: TA4006, Metabolic Activation: NONE, Method: STANDARD PLATE) “active; positive”; (Test System: CHINESE HAMSTER V-79, Strain/Indicator: V-79/6-THIOGUANINE, Metabolic Activation: NONE, Method: FLASK ASSAY) “inactive; negative”; (Test System: E. COLI, Strain/Indicator: WP2, Metabolic Activation: NONE, Method: STANDARD PLATE) “active; positive”; (Test System: E. COLI, Strain/Indicator: WP2, Metabolic Activation: RAT, LIVER, S-9, AROCLOR 1254, Method: STANDARD PLATE) “active; positive”. The mutagenic call is, setting by setting: (Test System: E. COLI, Strain/Indicator: WP2 UVRA, Metabolic Activation: NONE, Method: PREINCUBATION) “active; positive”; (Test System: E. COLI, Strain/Indicator: WP2 UVRA, Metabolic Activation: NONE, Method: STANDARD PLATE) “active; positive”; (Test System: E. COLI, Strain/Indicator: WP2 UVRA, Metabolic Activation: RAT, LIVER, S-9, AROCLOR 1254, Method: STANDARD PLATE) “active; positive”; (Test System: E. COLI, Strain/Indicator: WP2 UVRA, Metabolic Activation: S-9, Method: PREINCUBATION) “active; positive”; (Test System: E.COLI, Strain/Indicator: WP2UVRA, Metabolic Activation: NONE, Method: PREINCUBATION) “active; positive”; (Test System: E.COLI, Strain/Indicator: WP2UVRA, Metabolic Activation: RAT LIVER S-9, PHENOBARBITAL AND BETA-NAPHTHOFLAVONE, Method: PREINCUBATION) “active; positive”.

As for `CCCCCCCCCCCCCOC(=O)c1ccccc1C(=O)OCCCCCCCCCCCCC`, the mutagenic call was “inactive; negative” (Test System: AMES SALMONELLA TYPHIMURIUM, Strain/Indicator: TA98, Metabolic Activation: HAMSTER, LIVER, S-9, AROCLOR 1254 (10%), Method: PREINCUBATION); “inactive; negative” (Test System: AMES SALMONELLA TYPHIMURIUM, Strain/Indicator: TA98, Metabolic Activation: NONE, Method: PREINCUBATION); “inactive; negative” (Test System: AMES SALMONELLA TYPHIMURIUM, Strain/Indicator: TA98, Metabolic Activation: RAT, LIVER, S-9, AROCLOR 1254 (10%), Method: PREINCUBATION); “inactive; negative” under setting [1]; “inactive; negative” (Test System: AMES SALMONELLA TYPHIMURIUM, Strain/Indicator: TA100, Metabolic Activation: NONE, Method: PREINCUBATION); “inactive; negative” under setting [2]. The mutagenic call under setting [3] is “inactive; negative”; the mutagenic call (Test System: AMES SALMONELLA TYPHIMURIUM, Strain/Indicator: TA1535, Metabolic Activation: NONE, Method: PREINCUBATION) was “inactive; negative”; the mutagenic call under setting [4] is “inactive; negative”; the mutagenic call (Test System: AMES SALMONELLA TYPHIMURIUM, Strain/Indicator: TA1537, Metabolic Activation: HAMSTER, LIVER, S-9, AROCLOR 1254 (10%), Method: PREINCUBATION) was “inactive; negative”; the mutagenic call (Test System: AMES SALMONELLA TYPHIMURIUM, Strain/Indicator: TA1537, Metabolic Activation: NONE, Method: PREINCUBATION) was “inactive; negative”; the mutagenic call (Test System: AMES SALMONELLA TYPHIMURIUM, Strain/Indicator: TA1537, Metabolic Activation: RAT, LIVER, S-9, AROCLOR 1254 (10%), Method: PREINCUBATION) was “inactive; negative”.

As to `CC(C)CCOS(C)(=O)=O`, the mutagenic call is “active; positive” (End Point: IN VITRO MICRONUCLEUS, Test System: MOUSE LYMPHOMA L5178Y CELLS, Metabolic Activation: NONE); “inactive; negative” (End Point: IN VITRO MICRONUCLEUS, Test System: MOUSE LYMPHOMA L5178Y CELLS, Metabolic Activation: RAT, LIVER, S-9); “active; positive” (Test System: AMES SALMONELLA TYPHIMURIUM, Strain/Indicator: TA100, Metabolic Activation: NONE, Method: STANDARD PLATE); “active; positive” (Test System: AMES SALMONELLA TYPHIMURIUM, Strain/Indicator: TA100, Metabolic Activation: RAT, LIVER, S-9, Method: STANDARD PLATE).

For `Oc1cccc2sc3ccccc3c12`, the mutagenic call (Test System: CHINESE HAMSTER OVARY, Strain/Indicator: CHO-K1-BH4 (HGPRT)/6-THIOGUANINE, Metabolic Activation: RAT, LIVER, S-9, AROCLOR (4%)) was “active; positive”.
